Source: PubChem BioAssay AID330 (DTP/NCI, 2004)
Several values for one entry are separate records, joined by “and”; a condition that tells them apart may be missing. Equal values may be shown once. Toxic doses and inconclusive results are not listed.

System: P388 leukemia ip, CD2F1 mice, survival T/C
Experiment: NCI In Vivo Anticancer Drug Screen. Data for tumor model P388 Leukemia (intraperitoneal) in CD2F1 (CDF1) mice
Conditions: endpoint: median survival time, higher = longer survival
Summary of the method: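 Mice carrying the transplanted tumor received test compound or vehicle. Survival was recorded in each group, and the value is the treated-group measurement divided by that of the vehicle-treated control group.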

[1] = dose: 100.0 mg/kg/injection, schedule: Q01DX001 (ip), vehicle: Klucel (hydroxypropylcellulose) (HPC)
[2] = dose: 200.0 mg/kg/injection, schedule: Q01DX001 (ip), vehicle: Klucel (hydroxypropylcellulose) (HPC)
[3] = dose: 400.0 mg/kg/injection, schedule: Q01DX001 (ip), vehicle: Klucel (hydroxypropylcellulose) (HPC)
[4] = dose: 50.0 mg/kg/injection, schedule: Q01DX005 (ip), vehicle: saline with Tween-80
[5] = dose: 100.0 mg/kg/injection, schedule: Q01DX005 (ip), vehicle: saline with Tween-80
[6] = dose: 200.0 mg/kg/injection, schedule: Q01DX005 (ip), vehicle: saline with Tween-80
[7] = dose: 50.0 mg/kg/injection, schedule: Q01DX009 (ip), vehicle: saline with Tween-80
[8] = dose: 100.0 mg/kg/injection, schedule: Q01DX009 (ip), vehicle: saline with Tween-80
[9] = dose: 200.0 mg/kg/injection, schedule: Q01DX009 (ip), vehicle: saline with Tween-80
[10] = dose: 50.0 mg/kg/injection, schedule: Q01DX005 (ip), vehicle: Klucel (hydroxypropylcellulose) (HPC)
[11] = dose: 100.0 mg/kg/injection, schedule: Q01DX005 (ip), vehicle: Klucel (hydroxypropylcellulose) (HPC)
[12] = dose: 200.0 mg/kg/injection, schedule: Q01DX005 (ip), vehicle: Klucel (hydroxypropylcellulose) (HPC)

Structure (SMILES): COc1ccc(OC)c2c(C)c(C)c(Cl)nc12
- T/C [1]: 92 % of control
- T/C [2]: 107 % of control
- T/C [3]: 95 % of control

Structure (SMILES): O=C(COc1ccc(Cl)cc1)NN1CCCCCC1
- T/C (dose: 7.5 mg/kg/injection, schedule: Q01DX005 (ip), vehicle: Klucel (hydroxypropylcellulose) (HPC)): 99 % of control
- T/C (dose: 15.0 mg/kg/injection, schedule: Q01DX005 (ip), vehicle: Klucel (hydroxypropylcellulose) (HPC)): 98 % of control

Structure (SMILES): CC(C)CC(CC(C)C)[N+](=O)[O-]
- T/C [4]: 111 % of control
- T/C [5]: 105 % of control
- T/C [6]: 107 % of control

Structure (SMILES): CCCCCCCCCOCC(=O)O
- T/C [7]: 100 % of control
- T/C [8]: 99 % of control
- T/C [9]: 95 % of control

Structure (SMILES): CCOC(=O)CC1=CSC(=C(C#N)C#N)N1c1ccccc1
- T/C [4]: 102 % of control
- T/C [5]: 98 % of control
- T/C [6]: 98 % of control

Structure (SMILES): CC(C)n1nnnc1-c1ccccc1
- T/C (dose: 50.0 mg/kg/injection, schedule: Q01DX009 (ip), vehicle: Klucel (hydroxypropylcellulose) (HPC)): 94 % of control
- T/C (dose: 100.0 mg/kg/injection, schedule: Q01DX009 (ip), vehicle: Klucel (hydroxypropylcellulose) (HPC)): 94 % of control
- T/C (dose: 200.0 mg/kg/injection, schedule: Q01DX009 (ip), vehicle: Klucel (hydroxypropylcellulose) (HPC)): 94 % of control

Structure (SMILES): C(=C\C1CC2CCCN2O1)/c1ccccc1 (centres undefined)
- T/C (dose: 25.0 mg/kg/injection, schedule: Q01DX009 (ip), vehicle: saline with Tween-80): 90 % of control
- T/C [7]: 105 % of control
- T/C [8]: 100 % of control
- T/C [9]: 107 % of control

Structure (SMILES): Nc1[nH][nH]c(=O)c1N
- T/C (dose: 50.0 mg/kg/injection, schedule: Q01DX005 (ip), vehicle: saline): 101 % of control
- T/C (dose: 100.0 mg/kg/injection, schedule: Q01DX005 (ip), vehicle: saline): 101 % of control
- T/C (dose: 200.0 mg/kg/injection, schedule: Q01DX005 (ip), vehicle: saline): 107 % of control

Structure (SMILES): CCC(C)CCC(=O)O (centres undefined)
- T/C [7]: 98 % of control
- T/C [8]: 97 % of control
- T/C [9]: 99 % of control

Structure (SMILES): COc1nccn2c(C)nnc12
- T/C [1]: 100 % of control
- T/C [2]: 100 % of control

Structure (SMILES): CC1=CC(C)C[N+](C)(C)C1 (centres undefined)
- T/C (dose: 3.12 mg/kg/injection, schedule: Q01DX005 (ip), vehicle: saline): 104 % of control
- T/C (dose: 6.25 mg/kg/injection, schedule: Q01DX005 (ip), vehicle: saline): 103 % of control
- T/C (dose: 12.5 mg/kg/injection, schedule: Q01DX005 (ip), vehicle: saline): 100 % of control
- T/C (dose: 25.0 mg/kg/injection, schedule: Q01DX005 (ip), vehicle: saline): 94 % of control

Structure (SMILES): S=P1(CNc2ccccc2)CN(c2ccccc2)CN(c2ccccc2)C1
- T/C (dose: 50.0 mg/kg/injection, schedule: Q01DX001 (ip), vehicle: saline with Tween-80): 100 % of control
- T/C (dose: 100.0 mg/kg/injection, schedule: Q01DX001 (ip), vehicle: saline with Tween-80): 95 % of control
- T/C (dose: 200.0 mg/kg/injection, schedule: Q01DX001 (ip), vehicle: saline with Tween-80): 100 % of control

Structure (SMILES): Cc1c2ccnc(C(N)=O)c2c(C)c2c1[nH]c1ccccc12
- T/C (dose: 6.25 mg/kg/injection, schedule: Q04DX002 (ip), vehicle: distilled water + Tween-80): 99 % of control
- T/C (dose: 6.25 mg/kg/injection, schedule: Q04DX003 (ip), vehicle: distilled water + Tween-80): 111 % of control
- T/C (dose: 12.5 mg/kg/injection, schedule: Q04DX002 (ip), vehicle: distilled water + Tween-80): 99 % of control
- T/C (dose: 12.5 mg/kg/injection, schedule: Q04DX003 (ip), vehicle: distilled water + Tween-80): 112 % of control
- T/C (dose: 25.0 mg/kg/injection, schedule: Q04DX002 (ip), vehicle: distilled water + Tween-80): 99 % of control
- T/C (dose: 25.0 mg/kg/injection, schedule: Q04DX003 (ip), vehicle: distilled water + Tween-80): 112 % of control
- T/C (dose: 50.0 mg/kg/injection, schedule: Q04DX002 (ip), vehicle: distilled water + Tween-80): 104 % of control
- T/C (dose: 50.0 mg/kg/injection, schedule: Q04DX003 (ip), vehicle: distilled water + Tween-80): 104 % of control
- T/C (dose: 100.0 mg/kg/injection, schedule: Q04DX002 (ip), vehicle: distilled water + Tween-80): 104 % of control and 111 % of control
- T/C (dose: 100.0 mg/kg/injection, schedule: Q04DX003 (ip), vehicle: distilled water + Tween-80): 111 % of control
- T/C (dose: 200.0 mg/kg/injection, schedule: Q04DX002 (ip), vehicle: distilled water + Tween-80): 118 % of control
- T/C (dose: 200.0 mg/kg/injection, schedule: Q04DX003 (ip), vehicle: distilled water + Tween-80): 115 % of control
- T/C (dose: 800.0 mg/kg/injection, schedule: Q04DX002 (ip), vehicle: distilled water + Tween-80): 155 % of control

Structure (SMILES): N#C/C(C(N)=O)=C1/C(=O)Nc2ccccc21
- T/C [10]: 103 % of control
- T/C [11]: 98 % of control
- T/C [12]: 94 % of control

Structure (SMILES): O=C1C=C2OCOC2=C/C1=C/C=C/c1ccccc1
- T/C (dose: 2.5 mg/kg/injection, schedule: Q01DX009 (ip), vehicle: saline with Tween-80): 102 % of control
- T/C (dose: 5.0 mg/kg/injection, schedule: Q01DX009 (ip), vehicle: saline with Tween-80): 101 % of control
- T/C (dose: 10.0 mg/kg/injection, schedule: Q01DX009 (ip), vehicle: saline with Tween-80): 103 % of control

Structure (SMILES): Cc1cc(=O)n2c(-c3ccccc3)csc2n1
- T/C (dose: 100.0 mg/kg/injection, schedule: Q04DX003 (ip), vehicle: Klucel (hydroxypropylcellulose) (HPC)): 101 % of control
- T/C (dose: 200.0 mg/kg/injection, schedule: Q04DX003 (ip), vehicle: Klucel (hydroxypropylcellulose) (HPC)): 110 % of control
- T/C (dose: 400.0 mg/kg/injection, schedule: Q04DX003 (ip), vehicle: Klucel (hydroxypropylcellulose) (HPC)): 113 % of control

Structure (SMILES): C=C(C)c1nc(NCC)nc(NCC)n1
- T/C [1]: 94 % of control
- T/C [2]: 90 % of control
- T/C [3]: 92 % of control

Structure (SMILES): CN(c1ccccc1)S(=O)(=O)c1ccccc1
- T/C [8]: 95 % of control
- T/C [9]: 95 % of control
- T/C (dose: 200.0 mg/kg/injection, schedule: Q04DX003 (ip), vehicle: saline with Tween-80): 100 % of control
- T/C (dose: 400.0 mg/kg/injection, schedule: Q01DX009 (ip), vehicle: saline with Tween-80): 100 % of control
- T/C (dose: 400.0 mg/kg/injection, schedule: Q04DX003 (ip), vehicle: saline with Tween-80): 87 % of control

Structure (SMILES): CN(C=O)C(C(=O)Nc1cccc2c(OC(=O)C(N(C)C=O)(N(C)C=O)N(C)C=O)c(N=Nc3ccc(S(=O)(=O)Nc4nccs4)cc3)cc(N=Nc3ccc(S(=O)(=O)Nc4nccs4)cc3)c12)(N(C)C=O)N(C)C=O (tested in a mixture with another compound)
- T/C [5]: 114 % of control
- T/C [6]: 115 % of control
- T/C (dose: 500.0 mg/kg/injection, schedule: Q01DX001 (ip), vehicle: saline with Tween-80): 109 % of control
- T/C (dose: 1000.0 mg/kg/injection, schedule: Q01DX001 (ip), vehicle: saline with Tween-80): 105 % of control
- T/C (dose: 2000.0 mg/kg/injection, schedule: Q01DX001 (ip), vehicle: saline with Tween-80): 113 % of control

Structure (SMILES): COC(=O)c1cc(=O)n(Cc2ccco2)c(=Nc2ccccc2)s1
- T/C [4]: 98 % of control
- T/C [5]: 97 % of control
- T/C [6]: 94 % of control

Structure (SMILES): OCC#C[C@@H]1CC[C@H]1C#CCO
- T/C [10]: 100 % of control
- T/C [11]: 103 % of control
- T/C [12]: 103 % of control

Structure (SMILES): O=C1CC[C@@H]2N1CC2(O)c1ccccc1 (mixture of isomers)
- T/C [10]: 96 % of control
- T/C [11]: 93 % of control
- T/C [12]: 93 % of control

Structure (SMILES): Cc1ccc(Br)c(C(O)(C(F)(F)F)C(F)(F)F)c1
- T/C (dose: 100.0 mg/kg/injection, schedule: Q01DX001 (ip), vehicle: other): 103 % of control and 104 % of control
- T/C (dose: 200.0 mg/kg/injection, schedule: Q01DX001 (ip), vehicle: other): 101 % of control
- T/C (dose: 400.0 mg/kg/injection, schedule: Q01DX001 (ip), vehicle: other): 111 % of control and 108 % of control

Structure (SMILES): CC(=O)C1C(=O)C(=O)N(c2ccc(S(N)(=O)=O)cc2)C1=O (centres undefined)
- T/C (dose: 60.0 mg/kg/injection, schedule: Q01DX005 (ip), vehicle: saline with Tween-80): 103 % of control
- T/C (dose: 120.0 mg/kg/injection, schedule: Q01DX005 (ip), vehicle: saline with Tween-80): 104 % of control
- T/C (dose: 240.0 mg/kg/injection, schedule: Q01DX005 (ip), vehicle: saline with Tween-80): 118 % of control

Structure (SMILES): C(=N\c1oc(-c2ccccc2)c(-c2ccccc2)c1-c1ccccc1)/c1ccccc1
- T/C [4]: 88 % of control
- T/C [5]: 88 % of control
- T/C [6]: 95 % of control

Structure (SMILES): COc1c2c(cc3c1C(O)N(C)CC3)OCO2 (centres undefined)
- T/C (dose: 30.0 mg/kg/injection, schedule: Q01DX005 (ip), vehicle: saline): 100 % of control
- T/C (dose: 60.0 mg/kg/injection, schedule: Q01DX005 (ip), vehicle: saline): 100 % of control and 93 % of control

Structure (SMILES): C1COCCCOCCCOCCCC2(CCCOCCCOC1)OCCO2
- T/C [4]: 102 % of control
- T/C [5]: 102 % of control
- T/C [6]: 101 % of control
